Type in all cases: in vivo, patients
The subject of series [1] is distal and lateral subungual toenail onychomycosis. Description: Clinical trial in toenail onychomycosis: healthy toenail growth. The method, then: (§1) A clinical trial was conducted to evaluate delivery of terbinafine HCl with an iontophoretic device according to an aspect of the present invention in patients with toenail onychomycosis. 38 patients suffering from distal and lateral subungual toenail onychomycosis were enrolled into the study and were divided randomly into group A (20 subjects) and group B (18 subjects). Onychomycosis was confirmed by both KOH examination and mycological culture, wherein samples were taken from the distal parts of the nail. Nail samples were divided, one part being used for direct KOH examination and the second part for fungal culture using Sabouraud's Dextrose agar (Novamed, Jerusalem, Israel). The identification of the fungus was done on the basis of morphologic characteristics. Group A was tested with 1% terbinafine HCl and an iontophoretic patch using a constant current density of 100 μA/cm^2. Group B was tested with 1% terbinafine HCl without iontophoresis. Treatment period was overnight wear, every day, five days per week, for 4 weeks. During the treatment period visits were conducted every 10 days (visits 2-4). The follow-up period was 10 weeks from the end of treatment (visit 5). At each visit nail photography and KOH examination were performed. […] Terbinafine content in affected nail samples was determined by clipping nails at visits 4 & 5. […] The eluted solution was analysed by HPLC.

A short description of series [2]: Clinical trial: safety and tolerability of iontophoretic terbinafine delivery. To be noted: terbinafine delivered into the nail with the iontophoretic device, nail onychomycosis. The method, then: as §1
Series [3] can be described thus: Terbinafine content in clipped nail samples by HPLC. The method, then: Group A was tested with 1% terbinafine HCl and an iontophoretic patch using a constant current density of 100 μA/cm^2. Group B was tested with 1% terbinafine HCl without iontophoresis. Treatment period was overnight wear, every day, five days per week, for 4 weeks. During the treatment period visits were conducted every 10 days (visits 2-4). The follow-up period was 10 weeks from the end of treatment (visit 5). At each visit nail photography and KOH examination were performed. Routine blood test; complete blood count and liver functions tests were performed at the before study initiation, at the end of the treatment and at the end of the follow-up period. Terbinafine content in affected nail samples was determined by clipping nails at visits 4 & 5. Nails were then weighed and cut into symmetric shapes in order to estimate their area. Symmetric shapes of nails were then cut into small pieces and inserted into tubes with 0.5 ml DDW. Subsequently, methanol 0.5 ml was added and tubes were sonicated. The eluted solution was analysed by HPLC.

The test system of series [4] is fungal elements (KOH) in nail specimens. Description: Clinical trial in toenail onychomycosis: KOH examination for fungal elements in nail specimens. To be noted: 10 weeks following completion of treatment. The method, then: as §1

Where a name gives a salt, the structure may show the parent alone.

`CN(C/C=C/C#CC(C)(C)C)Cc1cccc2ccccc12` [terbinafine, terbinafine HCl]: the “percentage of patients having healthy toenail growth above 1.5 mm at the end of treatment” value in series [1] (group A: 1% terbinafine HCl with iontophoretic patch, constant current density 100 μA/cm^2, 4 weeks) is listed as 40%; in series [1] (passive group B: 1% terbinafine HCl without current, 4 weeks) it was 11%. Also, the safety and tolerability entry in series [2] is “safe and well tolerated”. Further, the Terbinafine nail content in series [3] (end of follow up period (visit 5), active group A (iontophoretic patch)) amounted to 2.41 μg/cm^2; in series [3] (end of follow up period (visit 5), passive group B (without iontophoresis)), 0.15 μg/cm^2; in series [3] (visit 4, passive group B (without iontophoresis)), 1.34 μg/cm^2. The “percentage of patients having fungal elements (KOH) in nail specimens” value in series [4] (active group A (iontophoretic patch, 100 μA/cm^2)) came out at 15%; in series [4] (passive group B (without iontophoresis)), 53%.

The values are drawn from patent US20110060268A1, “NAIL TREATMENT DEVICE” (POWER PAPER LTD., priority 2008, published 2011).
